Measured values reported in patent US5922740A, “Heterocyclylcarbonyl substituted benzofuranyl-ureas” (Bayer Aktiengesellschaft, priority 1995, dated 1999).

Columns and labels:
B6D2F1 mice = experiment: Endotoxin induced shock lethality in mice; format: in vivo; settings: galactosamine-sensitized mice, LPS 0.01 μg/mouse; compound intravenously 1 hour prior LPS, doses of 3 to 30 mg/kg
Protocol: 9. Endotoxin Induced Shock Lethality in Mice
B6D2F1 mice (n=10) were sensitized with galactosamine (600 mg/kg), and shock and lethality were triggered by LPS (0.01 μg/mouse). The compounds were administered intravenously 1 hour prior LPS. Controls were LPS challenged mice without compound. Mice were dying 8 to 24 hours post LPS challenge. Example 2, 13 and 16 reduced the endotoxin medicated mortality about 70% to 100% at doses of 3 to 30 mg/kg.

human monocytes = experiment: Endotoxin induced TNF release; format: cell-based; settings: LPS 2 μg ml^-1, 18 to 24 hours, ELISA
Protocol: 7. Preparation of Human Monocytes
Blood was taken from normal donors. Monocytes were isolated from peripheral blood by density centrifugation, followed by centrifugal elutriation.
8. Endotoxin Induced TNF Release
Monocytes (1×10^6 ml^-1) were stimulated with LPS (2 μg ml^-1) and coincubated with the compounds at different concentrations (10^-4 to 10 μg ml^-1) Compounds were dissolved in DMSO/medium (2% v/v). The cells were incubated in RPMI-1640 medium glutamine/FCS supplemented and at 37° C. in a humidified atmosphere with 5% CO2. After 18 to 24 hours TNF was determined in the supernatants by an human TNF specific ELISA (medgenix). Controls were nonstimulated and LPS stimulated monocytes without compounds. Example 2, 13 and 16 induce inhibition of LPS driven TNF activity in human monocytes (IC50 : 10^-3 to 1 μg ml^-1).

SMILES	reduction of endotoxin mediated mortality (B6D2F1 mice)	IC50, inhibition of LPS driven TNF activity (human monocytes)
Cc1ccc2c(NC(N)=O)c(C(=O)c3cccnc3)oc2c1 [Example 16]	70% to 100	10^-3 to 1 μg ml^-1
COc1ccc2c(NC(N)=O)c(C(=O)c3ccncc3)oc2c1 [Example 2]	70% to 100	10^-3 to 1 μg ml^-1
CC[n+]1ccc(C(=O)c2oc3cc(OC)ccc3c2NC(N)=O)cc1 [Example 13]	70% to 100	10^-3 to 1 μg ml^-1
